Measurements: patent US20250115571A1, “OXOPIPERAZINE DERIVATIVES” (Inthera Bioscience AG, priority 2017, published 2025)

How the values were obtained:
Test in all cases: 5-day cell proliferation assay (CTG)
Format in all cases: cell-based
MOLM-13 = conditions: Homo sapiens, 120 h, MOLM-13, Leukemia
Method in brief: (§1)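 CTG luminescence after 5-day compound exposure at 37 °C (5% CO2, or air for L-15 media); triplicates; day 0 baseline read; GI50 from sigmoidal fit vs untreated cells.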

Caki 2 = conditions: Homo sapiens, 120 h, Caki 2, Kidney
Method in brief: as §1

KARPAS-422 = conditions: Homo sapiens, 120 h, KARPAS-422, Lymphoma
Method in brief: as §1

HL-60 = conditions: Homo sapiens, 120 h, HL-60, Leukemia
Method in brief: as §1

HUH-7 = conditions: Homo sapiens, 120 h, HUH-7, Liver
Method in brief: as §1

KARPAS-299 = conditions: Homo sapiens, 120 h, KARPAS-299, Lymphoma
Method in brief: as §1

Jurkat = conditions: Homo sapiens, 120 h, Leukemia
Method in brief: as §1

## CC(C)C[C@@H]1NCCN([C@@H](CC(C)C)C(=O)N2CCC3(C[C@@H]2C)OCC(CN2CCCC2)CO3)C1=O (stereo partly drawn) [Compound 258, (3S)-1-[(2S)-4-methyl-1-oxo-1-[(3s,6s,8S)-8-methyl-3-(pyrrolidin-1-ylmethyl)-1,5-dioxa-9-azaspiro[5.5]undec-an-9-yl]pentan-2-yl]-3-(2-methylpropyl)piper-azin-2-one (^≠), isomer Z]
MOLM-13
  GI50: 0.004 µM
Caki 2
  GI50: 0.014 µM
KARPAS-422
  GI50: 0.048 µM
HL-60
  GI50: 0.005 µM
HUH-7
  GI50: 0.01 µM
KARPAS-299
  GI50: 0.005 µM
Jurkat
  GI50: 0.018 µM
